In PubChem BioAssay AID602191 (Broad Institute, 2012):
Active and inactive are the calls of the source.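 Rule for the calls: active = fitted curve reaches 40% activation at a concentration no higher than the top valid tested dose; inconclusive = flat fit between 30% and 70% activation, or poor fit; inactive = uptake decrease, flat fit within 30% of zero, the rest.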 Starred links: 1 amine or outer side, 2 acyl side, 3 side chain; linkers in the order of their positions; H or OH if unused. Non-standard residues stand in square brackets, D forms with d. Residues, ends and D or L forms follow the SMILES beside them. ξ: configuration not given here. X1 = CCCCCCC[C@H](O)C[C@@H](N[*:1])[C@@H](O)C(=O)[*:2]; X3 = COc1ccc(CCCC(N[*:1])C(=O)[*:2])cc1; ξThr(3R) = C[C@@H](O)C(N)C(=O)O; NMeN = CN[C@@H](CC(N)=O)C(=O)O; X2 = C/C=C(/N[*:1])C(=O)[*:2]; Dhb = C/C=C(\N)C(=O)O; Sar = CNCC(=O)O

Target: Scavenger receptor class B member 1 (Mus musculus) (UniProt Q61009)
Assay: enhancers of DiI-HDL lipid transfer via SR-BI – cell-based, ldlA[mSR-BI] CHO, DiI fluorescence, cherry-pick, dose response (AID 602191);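 note: cell fluorescence from internalized DiI-labeled HDL after washing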;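 for AC40: potency of activators raising HDL uptake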;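 for activation (HDL uptake increase): 0% = median of DMSO wells and 100% = twice the DMSO signal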
Details: ldlA[mSR-BI] CHO cells, 3 h; for activation (HDL uptake increase): at 35 µM (top of the series); for AC40: DiI-HDL uptake fluorescence

Chain of Scavenger receptor class B member 1 (Mus musculus) (Q61009 whole entry, looked up): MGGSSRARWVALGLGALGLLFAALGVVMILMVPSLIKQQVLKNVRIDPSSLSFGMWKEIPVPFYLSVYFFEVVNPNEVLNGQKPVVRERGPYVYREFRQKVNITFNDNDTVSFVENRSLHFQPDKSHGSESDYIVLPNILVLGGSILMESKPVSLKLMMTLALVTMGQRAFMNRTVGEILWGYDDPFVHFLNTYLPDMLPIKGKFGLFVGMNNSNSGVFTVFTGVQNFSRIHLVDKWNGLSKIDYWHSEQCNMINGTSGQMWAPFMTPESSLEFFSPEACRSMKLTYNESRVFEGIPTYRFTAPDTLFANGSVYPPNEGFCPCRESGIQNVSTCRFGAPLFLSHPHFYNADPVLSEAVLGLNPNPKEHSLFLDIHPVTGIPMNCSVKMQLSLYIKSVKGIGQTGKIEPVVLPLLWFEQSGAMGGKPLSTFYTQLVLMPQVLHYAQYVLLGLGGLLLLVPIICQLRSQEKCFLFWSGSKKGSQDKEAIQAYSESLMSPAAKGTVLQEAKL

| SMILES | activation (HDL uptake increase) | AC40 |
| --- | --- | --- |
| O=C(COC(=O)c1cccs1)Nc1cccc(Cl)c1 | -3.43% (inactive) |  |
| COc1ccc(-n2nc(C(=O)N3CCN(Cc4ccc5c(c4)OCO5)CC3)c3ccccc3c2=O)cc1 | -5.05% (inactive) |  |
| CCN(CC)C(=O)c1ncn(Cc2ccccc2)c1C(=O)N(CC)CC | -3.26% (inactive) |  |
| Cc1cc(S(=O)(=O)NCCc2ccccc2)c(C)s1 | -1.19% (inactive) |  |
| CCC[C@@H](CNC)NC[C@H](Cc1ccccc1)NCCCCc1ccccc1 | -3.49% (inactive) |  |
| CCc1cccc(N(C(=O)c2csnn2)C(C(=O)NC2CCCC2)c2cccnc2)c1 (stereo not drawn) | 6.32% (inactive) |  |
| COCCCNC(=O)C1CCC(CNS(=O)(=O)c2ccc3c(c2)N(C(C)=O)CCO3)CC1 (stereo not drawn) | 7.18% (inactive) |  |
| CC(C)(C)n1nc2c(c1NC(=O)Cc1ccc(F)cc1)CS(=O)(=O)C2 | 9.82% (inactive) |  |
| COc1ccc(CCNS(=O)(=O)c2cn(C)c(=O)n(C)c2=O)cc1OC | -3.3% (inactive) |  |
| COc1ccc(N2C(=O)CCC(C(=O)N3CCOCC3)C2c2ccc(F)cc2)cc1 (stereo not drawn) | 5.04% (inactive) |  |
| C[C@]12C[C@H](O)[C@H]3[C@@H](CCC4=CC(=O)CC[C@@]43C)[C@@H]1CC[C@@H]2C(=O)CO | 6.28% (inactive) |  |
| Cc1ccc(CN2CCNC(=O)C2CC(=O)N2CCN(c3ncccn3)CC2)o1 (stereo not drawn) | -8.96% (inactive) |  |
| CCOC(=O)c1ccc(NC(=O)c2nc[nH]c2C(=O)NCCCCNC(=O)c2[nH]cnc2C(=O)Nc2ccc(C(=O)OCC)cc2)cc1 |  | 29.8 µM |
| CC1(C)CC(=O)C2=C(C1)N(CC1CCCO1)C(=O)C2(O)C(F)(F)F (stereo not drawn) | 8.29% (inactive) |  |
| COc1ccccc1-c1nc(SCC(=O)Nc2ccccc2F)n[nH]1 | -24.3% (inactive) |  |
| Cn1c(=O)[nH]c(=O)c2c1nc(N1CCN(c3ccccc3)CC1)n2CCSc1ncccn1 | 2.78% (inactive) |  |
| COc1ccc(NC(=O)N(C)C[C@H]2Oc3c(NC(=O)c4ccncc4)cccc3C(=O)N([C@H](C)CO)C[C@@H]2C)cc1 | -11.2% (inactive) |  |
| CCn1nnnc1-c1ccc(OC)c(S(=O)(=O)Nc2ccc(C)c(C)c2)c1 | -11.8% (inactive) |  |
| O=C(COC(=O)C1CC1)Nc1ccc(OC(F)F)cc1 | 4.41% (inactive) |  |
| CCOC(=O)N1CCN(C(=O)c2nn(C)c3c2CSc2ccccc2-3)CC1 | -12.2% (inactive) |  |
| Cc1ccc(N(CC(=O)N2CC(=O)Nc3ccccc32)S(=O)(=O)c2ccc3c(c2)OCCO3)cc1 | -11.9% (inactive) |  |
| Cc1c(CC(=O)O)c(=O)oc2cc(OCc3ccc(F)cc3Cl)ccc12 | 10.2% (inactive) |  |
| CCN(CC)CCCNC(CC(=O)Nc1cccc([N+](=O)[O-])c1)C(=O)O (stereo not drawn) | -2.51% (inactive) |  |
| COC(=O)c1ccc([C@@H](O)[C@H](C)C(=O)CC(=O)OC(C)(C)C)cc1 | 4.09% (inactive) |  |
| CCN1C(=O)C2C(c3cccc(F)c3)NC(CC)(C(=O)OC)C2C1=O (stereo not drawn) | -4.79% (inactive) |  |
| COc1ccc(C(C(=O)NC2CCCCC2)N(C(=O)CCl)c2ccc(C)cc2)cc1 (stereo not drawn) | -7.32% (inactive) |  |

| SMILES | activation (HDL uptake increase) | AC40 |
| --- | --- | --- |
| O=C(COC(=O)c1ccco1)c1ccc(S(=O)(=O)N2CCCCC2)cc1 | -16.4% (inactive) |  |
| CC(C)=C1C2CCC1C(C(=O)NCCc1ccccc1)C2C(=O)O (stereo not drawn) | -7.43% (inactive) |  |
| C[C@H](CO)N1C[C@H](C)[C@@H](CN(C)S(=O)(=O)c2ccccc2)Oc2ccc(NC(=O)Nc3ccc(C(F)(F)F)cc3)cc2C1=O |  | 34.6 µM |
| COc1ccc(N(C(=O)CNC(=O)c2ccco2)C(C(=O)NC2CCCCC2)c2ccncc2)cc1 (stereo not drawn) | 4.83% (inactive) |  |
| CSCCC(NC(=O)c1ccco1)C(=O)NC1CCC(C)CC1 (stereo not drawn) | -3.23% (inactive) |  |
| COc1ccc(C(C(=O)NC2CCCCC2)N(C(=O)CCl)c2ccccc2Cl)cc1 (stereo not drawn) | -7.36% (inactive) |  |
| Cc1ccc(S(=O)(=O)N(CCC(=O)NCC(c2ccccc2)N(C)C)c2ccccc2)cc1 (stereo not drawn) | -5.72% (inactive) |  |
| CN(C)CCn1c2c(c(SCC(=O)NCc3ccccc3)nc1=O)CCCC2 | 5.5% (inactive) |  |
| COc1ccc2cnnc(SCC(=O)Nc3ccc(C(C)=O)cc3)c2c1OC | -18.2% (inactive) |  |
| COc1cccc(OC)c1C(=O)N1CCN(Cc2ccccc2C)CC1 | -7.18% (inactive) |  |
| CN(C)CCCNC(=O)Cc1ccc(Br)cc1 | 0.791% (inactive) |  |
| CCN1C(=O)C(CC(=O)NC2CCCCC2)N(CC)C1=O (stereo not drawn) | 7.58% (inactive) |  |
| O=C(COC(=O)CNC(=O)c1ccc(Cl)cc1Cl)NCc1ccco1 | -5.97% (inactive) |  |
| C=CCC[C@@H](Cc1ccc(F)cc1)C(=O)OC[C@@H](Cc1c[nH]c2ccccc12)NC(=O)[C@@H](CC=C)CC(=O)N[C@@H](CO)Cc1ccccc1 | 47.8% (inactive) |  |
| CCOc1ccc(N(C(=O)c2ccc3c(c2)OCO3)C2C=CS(=O)(=O)C2)cc1 (stereo not drawn) | -7.61% (inactive) |  |
| Cc1ccc(NC(=O)CSCC(N)=O)cc1C | -9.19% (inactive) |  |
| OC(Cc1ccccc1)(c1ccccc1)C1CN2CCC1CC2 (stereo not drawn) | -3.56% (inactive) |  |
| CC(C)(C)OC(=O)NCCCC[C@H](NC(=O)c1nc[nH]c1C(=O)NC(c1ccccc1)c1ccccc1)C(=O)OC(C)(C)C | -9.52% (inactive) |  |
| CC1CCN(S(=O)(=O)c2ccc3c(c2)c(=O)c(C(=O)N2CCCCC2)cn3C)CC1 | -8.34% (inactive) |  |
| O=C(O)CCn1cc(/C=C/C(=O)c2ccc(Cl)cc2)c(-c2ccc(Br)cc2)n1 | -9.53% (inactive) |  |
| O=C(COc1ccccc1Cc1ccccc1)Nc1cccnc1 | -14.9% (inactive) |  |
| CN(c1ccc(OCC(=O)OCC(=O)Nc2ccc([N+](=O)[O-])cc2)cc1)S(=O)(=O)c1cccs1 | -13.3% (inactive) |  |
| CC(=O)Nc1ccc(SCC(=O)NC(=O)c2ccc(S(=O)(=O)N(C)C)cc2)cc1 | -3.69% (inactive) |  |
| Cc1nc(CCNC(=O)Cc2ccc(Cl)cc2)cs1 | -4.62% (inactive) |  |
| CC(C)C[C@@H](CN1CCCC1CN1C(=S)NC[C@@H]1Cc1ccc(O)cc1)N1C[C@H](Cc2ccc(O)cc2)N(CCc2ccccc2)C1=S (stereo partly drawn) | 39.2% (inactive) |  |
| COc1ccc(-n2nc3c(c2NC(=O)c2ccc(S(=O)(=O)N4CCOCC4)cc2)CS(=O)C3)cc1 (stereo not drawn) | -10.8% (inactive) |  |

| SMILES | activation (HDL uptake increase) | AC40 |
| --- | --- | --- |
| CCOC(CNC(=O)C1CCN(S(=O)(=O)c2ccc3nc4c(c(C(=O)O)c3c2)CCCCC4)CC1)OCC | 5.08% (inactive) |  |
| CC1CCCC(NC(=O)COC(=O)c2ccc3ccccc3n2)C1C (stereo not drawn) | -7.88% (inactive) |  |
| O=C(CCNC(=O)c1ccccc1Cl)NN1C(=O)NC2(CCCCC2)C1=O | -10.8% (inactive) |  |
| O=C(Cn1c(C(=O)NCCCN2CCOCC2)cc2sccc21)c1ccccc1 | 0.656% (inactive) |  |
| CC1CCc2c(C(=O)NCCN3CCOCC3)csc2C1 (stereo not drawn) | -15.7% (inactive) |  |
| O=C(NNC(=O)C1CC(c2cccnc2)=NO1)Nc1cccc(F)c1 (stereo not drawn) | -5.33% (inactive) |  |
| Cc1ccc(N2C(=O)C3C(C(=O)c4ccccc4)=NN(c4ccccc4)C3C2=O)cc1 (stereo not drawn) | 0.966% (inactive) |  |
| Cc1cccc(CCNS(=O)(=O)c2ccc3c(c2)NC(=O)CO3)c1 | 11.6% (inactive) |  |
| C=CC[C@@H](CC(=O)N[C@@H](CO)Cc1ccccc1)C(=O)N[C@@H](COC(=O)[C@@H](CC=C)Cc1ccc(F)cc1)Cc1c[nH]c2ccccc12 | -7.03% (inactive) |  |
| O=C(CCc1nc2ccccc2c(=O)[nH]1)N1CCN(c2ccccc2Cl)CC1 | -8.18% (inactive) |  |
| O=C(CNC(=O)c1ccc(Cl)cc1Cl)OCC(=O)N1CCCC1 | -11.8% (inactive) |  |
| O=C(C[C@H]1C/C=C\C[C@@H](Cc2ccc(F)cc2)C(=O)OC[C@H]2CCCN2C1=O)N[C@H](CO)Cc1ccccc1 | 6.35% (inactive) |  |
| COCCNC(=O)C1(C)C=CC2(CCCCC2)N1C(=O)c1ccccc1 (stereo not drawn) | 3.23% (inactive) |  |
| Cc1cc(C)c2[nH]c(=O)c(CN(CC3CCCO3)C(=O)c3cnccn3)cc2c1 (stereo not drawn) | -7.36% (inactive) |  |
| CCc1nn(CC(=O)N2CCN(CC)CC2)c(=O)c2cccn12 | -9.62% (inactive) |  |
| C/C=C1\NC(=O)[C@H](CC(N)=O)N(C)C(=O)C([C@@H](C)O)NC(=O)C(CCCc2ccc(OC)cc2)NC(=O)[C@H](C(C)C)NC(=O)/C(=C\C)NC(=O)[C@H](O)[C@@H](C[C@@H](O)CCCCCCC)NC(=O)[C@H](C)NC(=O)CN(C)C(=O)[C@H](CCC(N)=O)NC1=O (stereo partly drawn) (cyclo(A[X1][X2]V[X3][ξThr(3R)][NMeN][Dhb]Q[Sar])) |  | 28 µM |
| CCO[C@H]1OC(C(=O)N2CCOCC2)=C[C@@H](c2ccccc2)[C@@H]1CCCO | -6.57% (inactive) |  |
| COc1ccccc1N1CCN(C2CCCN(C(=O)c3ccccn3)C2)CC1 (stereo not drawn) | -4.31% (inactive) |  |
| CCN1CCN(C(c2cccc(OC)c2)c2sc3nc(C)nn3c2O)CC1 (stereo not drawn) | -1.19% (inactive) |  |
| COc1ccccc1CN1C(=O)CCC1(C)C(=O)NCc1cccnc1 (stereo not drawn) | -8.82% (inactive) |  |
| O=C(C[C@H]1C[C@H](C(=O)N2CCCCC2)[C@@]2(CCc3ccccc3)c3[nH]c4ccc(Cl)cc4c3CCN2C1=O)NCCc1ccccn1 |  | > 35 µM (inactive) |
| CC(C)NC(=O)c1ccc(CS(=O)(=O)c2ccc(Br)cc2)o1 | -7.98% (inactive) |  |
| COc1ccc(N2CCN(C(=O)NC(=O)c3ccc(Cl)cc3)CC2)cc1 | -6.64% (inactive) |  |
| CCCn1c(N)c(N(CCOC)C(=O)c2ccc(S(=O)(=O)N3CCOCC3)cc2)c(=O)[nH]c1=O | -4.96% (inactive) |  |
| CC(=O)Oc1ccc2oc(=O)c3c(c2c1)CCCN3C(=O)CN1CCN(c2ncccn2)CC1 | -12.6% (inactive) |  |
| COc1ccccc1CN(C(=O)CCl)C(C(=O)NC1CCCCC1)c1ccncc1 (stereo not drawn) | 3.52% (inactive) |  |
